Several values for one entry are separate records, joined by “and”; a condition that tells them apart may be missing. Equal entries are not always repeated.
Experiments:
[1] = system: burn response of the right ear of female Sprague-Dawley rats; experiment: Ear Burn Test (anti-inflammatory activity, ear burn model); assay type: in vivo; details: for mean (-x) of Δ %, % increase in thickness of the treated ear: group mean; for R ear (thickness of burned, treated ear) / Δ %, % increase in thickness of the treated ear: individual rats; for % inhibition of control response / % inhibition of control response (negative = inflammatory): 50 μl/burned ear, vehicle 90% acetone, 10% IPM, 16-18 hours; for % inhibition of control response (negative = inflammatory): 3 × 10^-2 M
Description: The anti-inflammatory activity of dipivalyloxymethylepinephrine (DDME), a novel prodrug according to this invention, was determined in an ear burn model vis-a-vis the known epinephrine prodrug, dipivalylepinephrine (DPE). Three different ear burn experiments were carried out, each experiment developing a comparison at two different drug dosages.
A controlled thermal challenge was administered to the right ear of female Sprague-Dawley rats, 40-60 g. […] Pressure applied during the 21 second burn administration was ca. 640 g/cm^2. Two groups, with and without application of vehicle (90% acetone, 10% isopropyl-myristate) served as controls. Vehicle with or without drug was applied to the right ear immediately after burning in the amount of […]. Rats were killed by cervical disclocation 16-18 hours after treatment and the thickness of each ear was determined with a micrometer (in inches ×10^3). Burn response values were normalized by expression of the % increase in thickness of the treated ear, i.e., [formula] The vehicle-treated control group was considered to be the maximum burn response within any given experiment. Inhibition or reversal of the burn response due to drug treatment is expressed as a percentage of the control response.

psoriatic response = details: concentrations comparable to 3×10^-2 M; cited from earlier work
[2] = 0.00001 M, n = 8, control/vehicle 44.6%
[3] = 0.0001 M, n = 8, control/vehicle 44.6%
[4] = .00003 M, control/vehicle 40.2 ± 12.6
[5] = .0003 M, control/vehicle 40.2 ± 12.6
[6] = .003 M, control/vehicle 32.5 ± 8.9
[7] = .03 M, control/vehicle 32.5 ± 8.9

| SMILES | mean (-x) of Δ %, % increase in thickness of the treated ear [1, 2] [%] | R ear (thickness of burned, treated ear) ([1]; 0.00001 M) | Δ %, % increase in thickness of the treated ear ([1]; 0.00001 M) | mean (-x) of Δ %, % increase in thickness of the treated ear [1, 3] [%] | R ear (thickness of burned, treated ear) ([1]; 0.0001 M) | Δ %, % increase in thickness of the treated ear ([1]; 0.0001 M) | % inhibition of control response ([1]; 1 × 10^-4 M) [%] | % inhibition of control response ([1]; 1 × 10^-5 M) [%] | % inhibition of control response (negative = inflammatory) [1] [%] | % inhibition of control response ([1]; 3 × 10^-3 M) [%] | % inhibition of control response ([1]; 3 × 10^-4 M) [%] | % inhibition of control response ([1]; 3 × 10^-5 M) [%] | mean (-x) of Δ %, % increase in thickness of the treated ear [1, 4] [%] | R ear (thickness of burned, treated ear) ([1]; .00003 M) | Δ %, % increase in thickness of the treated ear ([1]; .00003 M) | mean (-x) of Δ %, % increase in thickness of the treated ear [1, 5] [%] | R ear (thickness of burned, treated ear) ([1]; .0003 M) | Δ %, % increase in thickness of the treated ear ([1]; .0003 M) | mean (-x) of Δ %, % increase in thickness of the treated ear [1, 6] [%] | R ear (thickness of burned, treated ear) ([1]; .003 M) | other results |
| --- | --- | --- | --- | --- | --- | --- | --- | --- | --- | --- | --- | --- | --- | --- | --- | --- | --- | --- | --- | --- | --- |
| CNCC(O)c1ccc(OC(=O)C(C)(C)C)c(OC(=O)C(C)(C)C)c1 (stereo not drawn) [DPE, dipivalylepinephrine] | 33.3 | 17.8 inches ×10^3 and 15.7 inches ×10^3 and 16.2 inches ×10^3 and 18.1 inches ×10^3 and 16.1 inches ×10^3 and 14.5 inches ×10^3 and 18.3 inches ×10^3 | 41.3% and 26.6% and 24.6% and 29.8% and 46.0% and 26.8% and 25.0% and 46.4% | 34.4 | 15.9 inches ×10^3 and 17.3 inches ×10^3 and 17.4 inches ×10^3 and 18.3 inches ×10^3 and 16.6 inches ×10^3 and 15.8 inches ×10^3 and 16.4 inches ×10^3 and 17.2 inches ×10^3 | 31.4% and 35.2% and 35.9% and 48.8% and 32.8% and 26.4% and 27.1% and 37.6% | 22.9 | 25.3 | -21.5 | 8 | 31.3 | 19.7 | 32.3 ± 5.2 | 16.4 inches ×10^3 and 18.2 inches ×10^3 and 17.5 inches ×10^3 and 18.1 inches ×10^3 and 16.8 inches ×10^3 and 18.5 inches ×10^3 and 14.5 inches ×10^3 and 16.0 inches ×10^3 | 29.1% and 32.8% and 31.6% and 40.3% and 36.6% and 37.0% and 22.9% and 30.1% | 27.6 ± 6.9 | 15.8 inches ×10^3 and 16.4 inches ×10^3 and 18.0 inches ×10^3 and 18.3 inches ×10^3 and 17.7 inches ×10^3 and 16.6 inches ×10^3 and 15.2 inches ×10^3 and 16.2 inches ×10^3 | 27.4% and 26.2% and 27.7% and 35.6% and 34.1% and 12.6% and 29.6% | 29.9 ± 10.8 | 18.6 inches ×10^3 and 19.6 inches ×10^3 and 19.8 inches ×10^3 and 16.7 inches ×10^3 and 16.5 inches ×10^3 and 17.1 inches ×10^3 and 13.4 inches ×10^3 and 17.2 inches ×10^3 | Δ %, % increase in thickness of the treated ear ([1]; .003 M): 39.8% and 41.0% and 43.5% and 21.9% and 23.1% and 29.5% and 12.6% and 27.4%; mean (-x) of Δ %, % increase in thickness of the treated ear [1, 7]: 39.5 ± 11.4%; R ear (thickness of burned, treated ear) ([1]; .03 M): 17.5 inches ×10^3 and 21.3 inches ×10^3 and 18.1 inches ×10^3 and 18.5 inches ×10^3 and 20.0 inches ×10^3 and 17.4 inches ×10^3 and 15.7 inches ×10^3 and 18.3 inches ×10^3; Δ %, % increase in thickness of the treated ear ([1]; .03 M): 32.6% and 56.6% and 43.7% and 37.0% and 52.7% and 28.9% and 23.6% and 40.8%; psoriatic response in clinical observations (psoriatic response): a psoriatic response was often observed |
| CNCC(O)c1ccc(OCOC(=O)C(C)(C)C)c(OCOC(=O)C(C)(C)C)c1 (stereo not drawn) [DPME, dipivalyloxymethylepinephrine] | 30.5 | 16.3 inches ×10^3 and 16.5 inches ×10^3 and 13.8 inches ×10^3 and 14.1 inches ×10^3 and 17.0 inches ×10^3 and 14.7 inches ×10^3 and 17.8 inches ×10^3 and 16.8 inches ×10^3 | 30.4% and 35.2% and 16.9% and 22.6% and 41.7% and 20.5% and 40.2% and 36.6% | 23.0 | 14.0 inches ×10^3 and 14.7 inches ×10^3 and 13.6 inches ×10^3 and 14.5 inches ×10^3 and 15.4 inches ×10^3 and 14.9 inches ×10^3 and 15.3 inches ×10^3 | 18.6% and 23.5% and 12.4% and 21.8% and 31.6% and 22.5% and 26.3% and 27.5% | 48.4 | 31.6 | -32.6 | 8 | 41.3 | 30.6 | 27.9 ± 6.2 | 15.3 inches ×10^3 and 17.8 inches ×10^3 and 16.6 inches ×10^3 and 16.3 inches ×10^3 and 15.5 inches ×10^3 and 15.4 inches ×10^3 and 16.9 inches ×10^3 | 17.7% and 38.0% and 31.7% and 25.4% and 26.0% and 24.2% and 32.8% and 27.0% | 23.6 ± 7.9 | 17.7 inches ×10^3 and 16.4 inches ×10^3 and 18.0 inches ×10^3 and 17.5 inches ×10^3 and 15.2 inches ×10^3 and 15.5 inches ×10^3 and 15.0 inches ×10^3 and 14.8 inches ×10^3 | 22.1% and 17.1% and 38.5% and 31.6% and 22.6% and 24.0% and 17.2% and 15.6% | 29.9 ± 12.2 | 19.9 inches ×10^3 and 15.1 inches ×10^3 and 18.1 inches ×10^3 and 17.0 inches ×10^3 and 17.1 inches ×10^3 and 15.2 inches ×10^3 and 14.0 inches ×10^3 and 16.9 inches ×10^3 | Δ %, % increase in thickness of the treated ear ([1]; .003 M): 45.3% and 21.8% and 42.5% and 26.9% and 41.3% and 17.8% and 12.9% and 31.0%; mean (-x) of Δ %, % increase in thickness of the treated ear [1, 7]: 43.1 ± 12.4%; R ear (thickness of burned, treated ear) ([1]; .03 M): 18.4 inches ×10^3 and 16.9 inches ×10^3 and 20.7 inches ×10^3 and 18.2 inches ×10^3 and 19.3 inches ×10^3 and 20.9 inches ×10^3 and 19.0 inches ×10^3; Δ %, % increase in thickness of the treated ear ([1]; .03 M): 36.3% and 30.0% and 47.9% and 43.0% and 64.6% and 49.6%; anti-inflammatory effect compared with DPE ([1]; low concentration levels): consistently elicits a greater anti-inflammatory effect than DPE; more effective as an anti-inflammatory agent from a dosage standpoint ([1]; versus DPE, dose response profiles at low concentrations): 10-30 fold |
